Experimental data taken from patent publication US20250170130A1, “MODULATORS OF MYC FAMILY PROTO-ONCOGENE PROTEIN” (Nalo Therapeutics, priority 2022, published 2025).
Read-outs that look alike come from different tables or passages of the source.

Legend:
[1] = target: T1, MycN (Homo sapiens, UniProt P04198); test: Degradation of MycN protein in SK-N-BE(2) cells, JESS/Western blot of lysates; type: cell-based; settings: SKNBE2, 24 h; for Dmax at 0.5 µM: read-out: % Degradation of MycN (SKNBE2) 24 h, 0.5 μM; for Dmax at 1 µM: read-out: % Degradation of MycN (SKNBE2) 24 h, 1 μM; for Dmax at 3 µM: read-out: % Degradation of MycN (SKNBE2) 24 h, 3 μM; for Dmax at 6 µM: read-out: % Degradation of MycN (SKNBE2) 24 h, 6 μM
T1 construct: endogenous in cells; host or cells: SK-N-BE(2)
T1 sequence (P04198 1-464): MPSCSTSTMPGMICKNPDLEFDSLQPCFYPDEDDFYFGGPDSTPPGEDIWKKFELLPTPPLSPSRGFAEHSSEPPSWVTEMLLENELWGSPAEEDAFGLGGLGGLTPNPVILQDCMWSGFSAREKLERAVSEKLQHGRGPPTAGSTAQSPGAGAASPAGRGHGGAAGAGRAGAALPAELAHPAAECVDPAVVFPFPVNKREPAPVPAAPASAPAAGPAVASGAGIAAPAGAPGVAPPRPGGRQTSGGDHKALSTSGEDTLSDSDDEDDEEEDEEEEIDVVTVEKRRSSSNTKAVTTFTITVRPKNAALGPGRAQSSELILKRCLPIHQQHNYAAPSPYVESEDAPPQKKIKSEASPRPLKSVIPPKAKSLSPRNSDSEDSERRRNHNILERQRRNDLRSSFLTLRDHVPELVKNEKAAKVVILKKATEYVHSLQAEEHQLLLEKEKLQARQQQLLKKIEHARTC
In short: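 SK-N-BE(2) adherent cells (5E5 per well of a 6 well dish) were grown 24 hrs, then exposed to compounds diluted 1 in 20 in media, with DMSO controls, for 24 hrs. Cells were scraped, pelleted, PBS washed and lysed in RIPA buffer cocktail; after BCA protein quantitation, n-myc was detected by chemiluminescence on JESS/Western blot with tubulin and GAPDH loading controls read in the near infra red channel.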

[2] = target: T2, MycC (Homo sapiens, UniProt P01106); test: Degradation of MycC protein in L363 cells, JESS/Western blot of lysates; type: cell-based; settings: L-363, 24 h; for Dmax at 0.5 µM: read-out: % Degradation of MycC (L-363) 24 h, 0.5 μM; for Dmax at 1 µM: read-out: % Degradation of MycC (L-363) 24 h, 1 μM; for Dmax at 3 µM: read-out: % Degradation of MycC (L-363) 24 h, 3 μM; for Dmax at 6 µM: read-out: % Degradation of MycC (L-363) 24 h, 6 μM
T2 construct: endogenous in cells; host or cells: L363
T2 sequence (P01106 whole entry): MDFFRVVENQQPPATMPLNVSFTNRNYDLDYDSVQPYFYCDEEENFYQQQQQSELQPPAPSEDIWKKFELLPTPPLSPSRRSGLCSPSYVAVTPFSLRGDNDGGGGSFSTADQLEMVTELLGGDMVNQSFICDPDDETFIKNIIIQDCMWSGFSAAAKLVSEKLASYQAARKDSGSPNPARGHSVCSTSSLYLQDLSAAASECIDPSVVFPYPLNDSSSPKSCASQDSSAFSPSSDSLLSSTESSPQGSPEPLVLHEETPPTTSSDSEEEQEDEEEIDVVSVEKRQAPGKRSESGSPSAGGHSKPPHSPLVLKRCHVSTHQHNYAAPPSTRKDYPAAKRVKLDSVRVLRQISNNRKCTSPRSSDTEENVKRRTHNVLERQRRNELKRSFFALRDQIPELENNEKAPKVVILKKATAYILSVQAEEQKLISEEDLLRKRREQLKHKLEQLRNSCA
In short: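 L363 suspension cells were seeded at 1E6 cells per well and exposed to compound (stock 10 mM in DMSO) for 24 hrs. Cells were collected, spun down, rinsed with PBS, lysed in RIPA buffer cocktail on ice, clarified and kept at −80 degrees. Lysate protein was quantified by BCA, and c-myc was measured on JESS by chemiluminescence with tubulin and GAPDH loading controls in the NIR channel.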

Row | Compound | Dmax at 0.5 µM [1] [%] | Dmax at 1 µM [1] [%] | Dmax at 3 µM [1] [%] | Dmax at 6 µM [1] [%] | Dmax at 0.5 µM [2] [%] | Dmax at 1 µM [2] [%] | Dmax at 3 µM [2] [%] | Dmax at 6 µM [2] [%] | Dmax at 0.5 µM ([1]; SKNBE2 cells, 24 h, 0.5 μM) [%] | Dmax at 1 µM ([1]; SKNBE2 cells, 24 h, 1 μM) [%] | Dmax at 3 µM ([1]; SKNBE2 cells, 24 h, 3 μM) [%] | Dmax at 6 µM ([1]; SKNBE2 cells, 24 h, 6 μM) [%] | Dmax at 0.5 µM ([2]; L-363 cells, 24 h, 0.5 μM) [%] | Dmax at 1 µM ([2]; L-363 cells, 24 h, 1 μM) [%] | Dmax at 3 µM ([2]; L-363 cells, 24 h, 3 μM) [%] | Dmax at 6 µM ([2]; L-363 cells, 24 h, 6 μM) [%]
1 | COCCNCC12CC(C1)N(c1nccc(Nc3cc(C4CCCC4)[nH]n3)n1)C2 [Compound 67, N-(5-Cyclopentyl-1H-pyrazol-3-yl)-2-[4-[(2-methoxyethylamino)methyl]-2-azabicyclo[2.1.1]hexan-2-yl]pyrimidin-4-amine] | < 20 | 50 to 79 | 80 to 100 | 80 to 100 | < 20 | < 20 | 80 to 100 | 80 to 100 |  |  |  |  |  |  |  | 
2 | CS(=O)(=O)CCNCC12CC(C1)N(c1nccc(Nc3cc(C4CCCC4)[nH]n3)n1)C2 [Compound 68, N-(5-Cyclopentyl-1H-pyrazol-3-yl)-2-[4-[(2-methylsulfonylethylamino)methyl]-2-azabicyclo[2.1.1]hexan-2-yl]pyrimidin-4-amine] |  |  |  |  |  |  |  |  | < 20 | < 20 | 80 to 100 | 80 to 100 | < 20 | < 20 | 80 to 100 | 80 to 100
3 | CC1(NCC23CC(C2)N(c2nccc(Nc4cc(C5CCCC5)[nH]n4)n2)C3)COC1 [Compound 69, N-(5-Cyclopentyl-1H-pyrazol-3-yl)-2-[4-[[(3-methyloxetan-3-yl)amino]methyl]-2-azabicyclo[2.1.1]hexan-2-yl]pyrimidin-4-amine] |  |  |  |  |  |  |  |  | 20 to 49 | 20 to 49 | 80 to 100 | 80 to 100 | < 20 |  | 80 to 100 | 80 to 100
4 | FC(F)(F)CNCC12CC(C1)N(c1nccc(Nc3cc(C4CCCC4)[nH]n3)n1)C2 [Compound 71, N-(5-Cyclopentyl-1H-pyrazol-3-yl)-2-[4-[(2,2,2-trifluoroethylamino)methyl]-2-azabicyclo[2.1.1]hexan-2-yl]pyrimidin-4-amine] |  |  |  |  |  |  |  |  | 20 to 49 | 50 to 79 | 80 to 100 | 80 to 100 | 20 to 49 | 80 to 100 | 80 to 100 | 80 to 100
5 | c1cc(Nc2cc(C3CCCC3)[nH]n2)nc(N2CC3(CN4CCOCC4)CC2C3)n1 [Compound 72, N-(5-Cyclopentyl-1H-pyrazol-3-yl)-2-[4-(morpholinomethyl)-2-azabicyclo[2.1.1]hexan-2-yl]pyrimidin-4-amine] |  |  |  |  |  |  |  |  | 20 to 49 | 20 to 49 | 50 to 79 | 80 to 100 |  |  |  | 80 to 100
6 | O=S1(=O)CCN(CC23CC(C2)N(c2nccc(Nc4cc(C5CCCC5)[nH]n4)n2)C3)CC1 [Compound 73, N-(5-Cyclopentyl-1H-pyrazol-3-yl)-2-[4-[(1,1-dioxo-1,4-thiazinan-4-yl)methyl]-2-azabicyclo[2.1.1]hexan-2-yl]pyrimidin-4-amine] |  |  |  |  |  |  |  |  | < 20 | 20 to 49 | 50 to 79 | 80 to 100 |  |  | 20 to 49 | 80 to 100
7 | c1cc(Nc2cc(C3CCCC3)[nH]n2)nc(N2CC3(CN4CCCC4)CC2C3)n1 [Compound 75, N-(5-Cyclopentyl-1H-pyrazol-3-yl)-2-[4-(pyrrolidin-1-ylmethyl)-2-azabicyclo[2.1.1]hexan-2-yl]pyrimidin-4-amine] |  |  |  |  |  |  |  |  | 20 to 49 | 20 to 49 | 50 to 79 | 80 to 100 |  |  |  | 50 to 79
8 | c1cc(Nc2cc(C3CCCC3)[nH]n2)nc(N2CC3(CN4CCC4)CC2C3)n1 [Compound 76, 2-[4-(Azetidin-1-ylmethyl)-2-azabicyclo[2.1.1]hexan-2-yl]-N-(5-cyclopentyl-1H-pyrazol-3-yl)pyrimidin-4-amine] |  | < 20 | 80 to 100 | 80 to 100 |  |  | < 20 | 80 to 100 |  |  |  |  |  |  |  | 
9 | CC(C)NCC12CC(C1)N(c1nccc(Nc3cc(C4CCCC4)[nH]n3)n1)C2 [Compound 78, N-(5-Cyclopentyl-1H-pyrazol-3-yl)-2-[4-[(isopropylamino)methyl]-2-azabicyclo[2.1.1]hexan-2-yl]pyrimidin-4-amine] | < 20 | 20 to 49 | 80 to 100 | 80 to 100 |  | < 20 | 50 to 79 | 80 to 100 |  |  |  |  |  |  |  | 
10 | CNCC12CC(C1)N(c1nccc(Nc3cc(C4CCC4)[nH]n3)n1)C2 [Compound 81, N-(5-Cyclobutyl-1H-pyrazol-3-yl)-2-[4-(methylaminomethyl)-2-azabicyclo[2.1.1]hexan-2-yl]pyrimidin-4-amine] |  |  |  |  |  |  |  |  | 20 to 49 | 50 to 79 | 80 to 100 | 80 to 100 | 20 to 49 | 20 to 49 | 80 to 100 | 80 to 100
11 | CN1CC2(C1)CN(c1nccc(Nc3cc(C4CCCC4)[nH]n3)n1)C2 [Compound 84, N-(5-cyclopentyl-1H-pyrazol-3-yl)-2-(6-methyl-2,6-diazaspiro[3.3]heptan-2-yl)pyrimidin-4-amine] |  |  |  |  |  |  |  |  |  |  |  | 20 to 49 | 20 to 49 | 20 to 49 | < 20 | 20 to 49
12 | CN1CC2(CCN(c3nccc(Nc4cc(C5CCCC5)[nH]n4)n3)C2)C1 [Compound 85, N-(5-cyclopentyl-1H-pyrazol-3-yl)-2-(2-methyl-2,6-diazaspiro[3.4]octan-6-yl)pyrimidin-4-amine] |  |  |  |  |  |  |  |  | < 20 | < 20 | 20 to 49 | 50 to 79 | < 20 |  |  | < 20
13 | CN1CC2(CCN(c3nccc(Nc4cc(C5CCCC5)[nH]n4)n3)CC2)C1 [Compound 86] |  |  |  |  |  |  |  |  | 20 to 49 | 20 to 49 | 80 to 100 | 80 to 100 |  |  | 80 to 100 | 80 to 100
14 | CNCCCN(C)c1nccc(Nc2cc(C3CC3)[nH]n2)n1 [Compound 101, N^4-(5-Cyclopropyl-1H-pyrazol-3-yl)-N^2-methyl-N^2-[3-(methylamino)propyl]pyrimidine-2,4-diamine] |  |  |  |  |  |  |  |  | < 20 | < 20 | < 20 | 20 to 49 | 20 to 49 | 20 to 49 | 20 to 49 | 20 to 49
15 | CC(F)(F)CNCC12CC(C1)N(c1nccc(Nc3cc(C4CCCC4)[nH]n3)n1)C2 [Compound 103, N-(5-Cyclopentyl-1H-pyrazol-3-yl)-2-[4-[(2,2-difluoropropylamino)methyl]-2-azabicyclo[2.1.1]hexan-2-yl]pyrimidin-4-amine] |  |  |  |  |  |  |  |  | < 20 | 20 to 49 | 80 to 100 | 80 to 100 | < 20 | < 20 |  | 80 to 100
16 | CN1CCCC2(C1)CN(c1nccc(Nc3cc(C4CC4)[nH]n3)n1)C2 [Compound 104, N-(5-cyclopropyl-1H-pyrazol-3-yl)-2-(8-methyl-2,8-diazaspiro[3.5]nonan-2-yl)pyrimidin-4-amine] |  |  |  |  |  |  |  |  |  | < 20 | 20 to 49 | 20 to 49 |  | < 20 |  | 20 to 49
17 | c1cc(Nc2cc(C3CC3)[nH]n2)nc(N2CC3(CCCNC3)C2)n1 [Compound 105, N-(5-Cyclopropyl-1H-pyrazol-3-yl)-2-(2,8-diazaspiro[3.5]nonan-2-yl)pyrimidin-4-amine] |  |  |  |  |  |  |  |  | < 20 | < 20 | < 20 | 80 to 100 |  |  | < 20 | 80 to 100
